From PMC8263924 (The Journal of General Physiology, 2021)
Positions count from the first letter of the chain named. Where two headings read alike, the source gives them in different places.

Columns and labels:
Hv1 WT [1] = molecular target: T1, Hv1 WT (Homo sapiens, UniProt Q96D96); type: cell-based; details: for IC50: IC50 ± SE, inside-out patch, +120 mV, pHin = pHout = 6.0; for Inhibition of Hv1 WT (comparison of potency): compounds tested at 50 µM, Fig. 5 E
T1 sequence (Q96D96 1-273): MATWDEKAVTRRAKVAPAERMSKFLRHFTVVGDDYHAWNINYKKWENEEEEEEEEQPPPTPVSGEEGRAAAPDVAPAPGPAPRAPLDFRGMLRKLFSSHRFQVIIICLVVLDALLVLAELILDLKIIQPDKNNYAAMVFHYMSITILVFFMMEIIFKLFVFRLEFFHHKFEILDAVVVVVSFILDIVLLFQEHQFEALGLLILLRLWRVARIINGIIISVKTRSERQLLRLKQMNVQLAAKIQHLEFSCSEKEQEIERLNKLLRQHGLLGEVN

Hv1 F150A = molecular target: T2, Hv1 F150A (Homo sapiens, UniProt Q96D96, F150A); experiment: Inhibition of proton currents, inside-out patch clamp, Hv1 F150A; type: cell-based
T2 sequence (Q96D96 1-273 F150A): T1 sequence (Q96D96 1-273) with F150A

[2] = Solubility in recording solution; type: physicochemical; details: concentrations >1 mM
Hv1 WT [3] = molecular target: T1, Hv1 WT; details: dimeric Hv1; ref Hong et al., 2015; cited from earlier work

Row | SMILES | IC50 (Hv1 WT [1]; Hv1 WT) | IC50 (Hv1 F150A) | further results
1 | Nc1nc2ccccc2[nH]1 [ABI, 2-aminobenzimidazole] | 553 ± 43 µM | 18 ± 1 nM | Inhibition of Hv1 F150A (comparison with ABTA) (Hv1 F150A; ABI at 100 nM versus ABTA at 500 nM): much larger inhibition than ABTA; Inhibition of Hv1 F150A (Hv1 F150A; at 500 nM): saturated
2 | Nc1nc2cc(F)c(F)cc2[nH]1 [ABIF2, 5,6-difluoro-1H-1,3-benzodiazol-2-amine] | 244 ± 19 µM | 12 ± 1 nM | 
3 | Nc1nc2c(F)c(F)c(F)cc2[nH]1 [ABIF3, 4,5,6-trifluoro-1H-1,3-benzodiazol-2-amine] | 699 ± 45 µM | 93 ± 6 nM | Solubility under tested conditions [2]: not soluble at higher concentrations
4 | Nc1nc2c(F)cccc2[nH]1 [ABIFα, 4-fluoro-1H-1,3-benzodiazol-2-amine] | 729 ± 56 µM | 40 ± 1 nM | 
5 | Nc1nc2cc(F)ccc2[nH]1 [ABIFβ, 6-fluoro-1H-1,3-benzodiazol-2-amine] | 312 ± 17 µM | 13 ± 1 nM | 
6 | N=C(N)Nc1nc2ccccc2s1 [GBTA, 2-guanidino-benzothiazole] |  |  | Hill coefficient (Hv1 WT [3]): > 1
7 | Cc1[nH]c(N)nc1CCC(=O)c1cc(F)cc(F)c1.Cl [HIF, 3-(2-amino-5-methyl-1H-imidazol-4-yl)-1-(3,5-difluorophenyl)propan-1-one hydrochloride] | 13 ± 1 µM |  | IC50,HIFNF/IC50,HIF (Hv1 WT [1]; Hv1 WT): ~5.4; IC50,HIFNF/IC50,HIF (Hv1 F150A; Hv1 F150A): ~7.0
8 | Cc1[nH]c(N)nc1/C=C/C(=O)c1cc(F)cc(F)c1.Cl [HIFEN, (2E)-3-(2-amino-5-methyl-1H-imidazol-4-yl)-1-(3,5-difluorophenyl)prop-2-en-1-one hydrochloride] |  |  | h ± SE (Hill coefficient) (Hv1 WT [1]; Hv1 WT (dimeric), fit with Hill equation): ~1.5; Inhibition of Hv1 WT (comparison of potency) (Hv1 WT [1]; 50 µM): slightly more potent than HIF
9 | Cc1[nH]c(N)nc1CCC(=O)c1ccccc1.Cl [HIFNF, 3-(2-amino-5-methyl-1H-imidazol-4-yl)-1-phenylpropan-1-one hydrochloride] |  |  | IC50,ABI/IC50,HIFNF (Hv1 WT [1]; Hv1 WT): ~7.7; IC50,ABI/IC50,HIFNF (Hv1 F150A; Hv1 F150A): ~0.05
10 | Cc1[nH]c(N)nc1CCC(O)c1cc(F)cc(F)c1.Cl (stereo not shown) [HIFOH, 3-(2-amino-5-methyl-1H-imidazol-4-yl)-1-(3,5-difluorophenyl)propan-1-ol hydrochloride] |  |  | Inhibition of Hv1 WT (comparison of potency) (Hv1 WT [1]): less effective at reducing the proton current than HIF, HIFNH, and HIFEN
